System: MV-4-11 cells
Assay: Gene expression microarray analysis (Affymetrix PrimeView) and GSEA
Assay type: cell-based, human
Design: RFU PODN (11730768_x_at) / Fold change /veh PODN (11730768_x_at) / RFU LINC00158 (11744669_a_at) / Fold change /veh LINC00158 (11744669_a_at) / RFU DUSP10 (11751237_a_at) / Fold change /veh DUSP10 (11751237_a_at) / RFU ID3 (11757404_x_at) / Fold change /veh ID3 (11757404_x_at) / RFU PLEKHG5 (11737974_s_at) / Fold change /veh PLEKHG5 (11737974_s_at) / RFU LRRC4B (11730491_at) / Fold change /veh LRRC4B (11730491_at) / RFU GIMAP4 (11747438_a_at) / Fold change /veh GIMAP4 (11747438_a_at) / RFU KRT8 (11758183_x_at) / Fold change /veh KRT8 (11758183_x_at) / RFU CNN1 (11734310_a_at) / Fold change /veh CNN1 (11734310_a_at) / RFU VPS37D (11726825_at) / Fold change /veh VPS37D (11726825_at) / RFU C10orf10 (11716522_x_at) / Fold change /veh C10orf10 (11716522_x_at) / RFU KIR2DL2 /// KIR2DL4 /// KIR2DL5A /// KIR2DL5B /// KIR2DS1 /// KIR2DS2 /// KIR2DS3 /// KIR2DS4 /// KIR3DL3 /// KIR3DL3 /// KIR3DS1 (11738374_at) / Fold change /veh KIR2DL2 /// KIR2DL4 /// KIR2DL5A /// KIR2DL5B /// KIR2DS1 /// KIR2DS2 /// KIR2DS3 /// KIR2DS4 /// KIR3DL3 /// KIR3DL3 /// KIR3DS1 (11738374_at) / RFU C1QL1 (11718748_at) / Fold change /veh C1QL1 (11718748_at) / RFU TMPRSS4 (11747572_a_at) / Fold change /veh TMPRSS4 (11747572_a_at) / RFU HAMP (11756126_x_at) / Fold change /veh HAMP (11756126_x_at) / RFU RNFT2 (11725882_a_at) / Fold change /veh RNFT2 (11725882_a_at) / RFU NR4A2 (11747474_a_at) / Fold change /veh NR4A2 (11747474_a_at) / RFU ABCC12 (11746883_a_at) / Fold change /veh ABCC12 (11746883_a_at) / RFU TMEM136 (11760407_x_at) / Fold change /veh TMEM136 (11760407_x_at) / RFU CLDN22 /// WWC2 (11732394_at) / Fold change /veh CLDN22 /// WWC2 (11732394_at) / RFU HLA-DPB1 (11760878_x_at) / Fold change /veh HLA-DPB1 (11760878_x_at) / RFU SPINT1 (11716480_a_at) / Fold change /veh SPINT1 (11716480_a_at) / RFU GAP43 (11754022_s_at) / Fold change /veh GAP43 (11754022_s_at) / RFU A4GNT (11735810_at) / Fold change /veh A4GNT (11735810_at) / RFU PRB3 (11715151_x_at) / Fold change /veh PRB3 (11715151_x_at) / RFU TUBB4B (11761932_at) / Fold change /veh TUBB4B (11761932_at) / RFU CAPN14 (11732068_a_at) / Fold change /veh CAPN14 (11732068_a_at) / RFU TMCC2 (11721928_a_at) / Fold change /veh TMCC2 (11721928_a_at) / RFU IRGQ (11745062_a_at) / Fold change /veh IRGQ (11745062_a_at) / RFU FAM174B (11720279_a_at) / Fold change /veh FAM174B (11720279_a_at) / RFU TMPRSS4 (11748680_a_at) / Fold change /veh TMPRSS4 (11748680_a_at) / RFU FAM212B (11763350_a_at) / Fold change /veh FAM212B (11763350_a_at) / RFU PLEKHG5 (11743358_a_at) / Fold change /veh PLEKHG5 (11743358_a_at) / RFU ZSCAN30 (11745921_a_at) / Fold change /veh ZSCAN30 (11745921_a_at) / RFU CMKLR1 (11741424_a_at) / Fold change /veh CMKLR1 (11741424_a_at) / RFU LOC101060620 /// MAPK8IP1 (11723275_at) / Fold change /veh LOC101060620 /// MAPK8IP1 (11723275_at) / RFU SPTSSB (11747773_x_at) / Fold change /veh SPTSSB (11747773_x_at) / RFU PRSS12 (11739890_at) / Fold change /veh PRSS12 (11739890_at) / RFU BIN1 (11741810_x_at) / Fold change /veh BIN1 (11741810_x_at) / RFU WNT11 (11732464_a_at) / Fold change /veh WNT11 (11732464_a_at) / RFU C10orf10 (11716521_a_at) / Fold change /veh C10orf10 (11716521_a_at) / RFU C5orf56 (11738089_at) / Fold change /veh C5orf56 (11738089_at) / RFU CYB561 (11721691_x_at) / Fold change /veh CYB561 (11721691_x_at) / RFU ANKRD19P (11752326_a_at) / Fold change /veh ANKRD19P (11752326_a_at) / RFU OR2T12 /// OR2T33 /// OR2T8 (11738714_s_at) / Fold change /veh OR2T12 /// OR2T33 /// OR2T8 (11738714_s_at) / RFU VCAN (11748164_a_at) / Fold change /veh VCAN (11748164_a_at) / RFU JSRP1 (11732532_at) / Fold change /veh JSRP1 (11732532_at) / RFU KRTAP10-11 (11738290_x_at) / Fold change /veh KRTAP10-11 (11738290_x_at) / RFU MYO3A (11730013_a_at) / Fold change /veh MYO3A (11730013_a_at) / RFU EBF3 (11725865_a_at) / Fold change /veh EBF3 (11725865_a_at) / RFU CAMK2N1 (11719241_x_at) / Fold change /veh CAMK2N1 (11719241_x_at) / RFU C5orf56 (11738088_a_at) / Fold change /veh C5orf56 (11738088_a_at) / RFU OLFML3 (11715873_a_at) / Fold change /veh OLFML3 (11715873_a_at) / RFU LOC100653217 /// NTM (11731650_a_at) / Fold change /veh LOC100653217 /// NTM (11731650_a_at) / RFU MAPK11 (11762145_a_at) / Fold change /veh MAPK11 (11762145_a_at) / RFU FIZ1 (11724087_x_at) / Fold change /veh FIZ1 (11724087_x_at) / RFU OASL (11726364_x_at) / Fold change /veh OASL (11726364_x_at) / RFU SOX15 (11748057_x_at) / Fold change /veh SOX15 (11748057_x_at) / RFU CD79A (11719716_a_at) / Fold change /veh CD79A (11719716_a_at) / RFU HIST1H1D (11736915_at) / Fold change /veh HIST1H1D (11736915_at) / RFU CASKIN2 (11723855_a_at) / Fold change /veh CASKIN2 (11723855_a_at) / RFU LOC730098 (11760151_x_at) / Fold change /veh LOC730098 (11760151_x_at) / RFU OR4N2 (11742367_at) / Fold change /veh OR4N2 (11742367_at) / RFU PRRT2 (11749266_a_at) / Fold change /veh PRRT2 (11749266_a_at) / RFU SNX32 (11753110_a_at) / Fold change /veh SNX32 (11753110_a_at) / RFU CDHR5 (11726645_a_at) / Fold change /veh CDHR5 (11726645_a_at) / RFU RCAN1 (11760418_a_at) / Fold change /veh RCAN1 (11760418_a_at) / RFU FAM167A (11723789_a_at) / Fold change /veh FAM167A (11723789_a_at) / RFU FAM26E (11764081_at) / Fold change /veh FAM26E (11764081_at) / RFU ISYNA1 (11749810_s_at) / Fold change /veh ISYNA1 (11749810_s_at) / RFU ACY1 (11761880_at) / Fold change /veh ACY1 (11761880_at) / RFU 11764098_at / Fold change /veh 11764098_at / RFU SAMD14 (11745864_x_at) / Fold change /veh SAMD14 (11745864_x_at) / RFU NPB (11741838_a_at) / Fold change /veh NPB (11741838_a_at) / RFU TMPRSS6 (11731388_a_at) / Fold change /veh TMPRSS6 (11731388_a_at) / RFU KRTAP10-2 (11738614_at) / Fold change /veh KRTAP10-2 (11738614_at) / RFU ARHGAP8 /// PRR5-ARHGAP8 (11727945_x_at) / Fold change /veh ARHGAP8 /// PRR5-ARHGAP8 (11727945_x_at) / RFU KRTAP5-7 /// NADSYN1 (11734609_at) / Fold change /veh KRTAP5-7 /// NADSYN1 (11734609_at) / RFU RASL12 (11751679_a_at) / Fold change /veh RASL12 (11751679_a_at) / RFU CDKN2B (11736163_a_at) / Fold change /veh CDKN2B (11736163_a_at) / RFU PRF1 (11729649_at) / Fold change /veh PRF1 (11729649_at) / RFU, ZNF638 /// ZNF638-IT1 / Fold change vs veh, ZNF638 /// ZNF638-IT1 / RFU, PANK3 / Fold change vs veh, PANK3 / RFU, SH3YL1 / Fold change vs veh, SH3YL1 / RFU, ZEB2 / Fold change vs veh, ZEB2 / RFU, NRIP1 / Fold change vs veh, NRIP1 / RFU, PTTG1IP / Fold change vs veh, PTTG1IP / RFU, CAPN2 / Fold change vs veh, CAPN2 / RFU, MED14 / Fold change vs veh, MED14 / RFU, SNORA58 / Fold change vs veh, SNORA58 / RFU, C1orf63 / Fold change vs veh, C1orf63 / RFU, LRRFIP1 / Fold change vs veh, LRRFIP1 / RFU, NDUFAF7 / Fold change vs veh, NDUFAF7 / RFU, SLC12A2 / Fold change vs veh, SLC12A2 / RFU, IBTK / Fold change vs veh, IBTK / RFU, ESF1 / Fold change vs veh, ESF1 / Fold change vs veh, TMEM50B / RFU, TAOK1 / Fold change vs veh, TAOK1 / RFU, ACBD3 / Fold change vs veh, ACBD3 / RFU, TMA16 / Fold change vs veh, TMA16 / RFU, RWDD3 / Fold change vs veh, RWDD3 / RFU, BCAT1 / Fold change vs veh, BCAT1 / RFU, EDEM3 / Fold change vs veh, EDEM3 / RFU, TMEM33 / Fold change vs veh, TMEM33 / RFU, WDR75 / Fold change vs veh, WDR75 / RFU, AHCTF1 / Fold change vs veh, AHCTF1 / RFU, TFRC / Fold change vs veh, TFRC / RFU, ZDHHC17 / Fold change vs veh, ZDHHC17 / RFU, NOM1 / Fold change vs veh, NOM1 / RFU, ARL8B / Fold change vs veh, ARL8B / RFU, ZBTB11 / Fold change vs veh, ZBTB11 / RFU, TAMM41 / Fold change vs veh, TAMM41 / RFU, KIAA1704 /// LOC100996395 / Fold change vs veh, KIAA1704 /// LOC100996395 / RFU, ING1 / Fold change vs veh, ING1 / RFU, TRMT61B / Fold change vs veh, TRMT61B / RFU, FUBP3 / Fold change vs veh, FUBP3 / RFU, TP53 / Fold change vs veh, TP53 / RFU, TNKS2 / Fold change vs veh, TNKS2 / RFU, ZFP14 / Fold change vs veh, ZFP14 / RFU, ACTR2 / Fold change vs veh, ACTR2 / RFU, PPP3R1 / Fold change vs veh, PPP3R1 / RFU, PIK3R1 / Fold change vs veh, PIK3R1 / RFU, HNRNPA1 / Fold change vs veh, HNRNPA1 / RFU, RNF170 / Fold change vs veh, RNF170 / RFU, ZNF28 / Fold change vs veh, ZNF28 / RFU, RNGTT / Fold change vs veh, RNGTT / RFU, OGT / Fold change vs veh, OGT / RFU, BRD1 / Fold change vs veh, BRD1 / RFU, MARS / Fold change vs veh, MARS / RFU, ZNF655 / Fold change vs veh, ZNF655 / RFU, FAHD1 / Fold change vs veh, FAHD1 / RFU, BDP1 / Fold change vs veh, BDP1 / RFU, LRRCC1 / Fold change vs veh, LRRCC1 / RFU, ARID1A / Fold change vs veh, ARID1A / RFU, ZNF146 / Fold change vs veh, ZNF146 / RFU, ZNF330 / Fold change vs veh, ZNF330 / RFU, GPN3 / Fold change vs veh, GPN3 / RFU, C9orf123 / Fold change vs veh, C9orf123 / RFU, N4BP2L2 / Fold change vs veh, N4BP2L2 / RFU, ARFIP1 / Fold change vs veh, ARFIP1 / RFU, FAM179B / Fold change vs veh, FAM179B / RFU, BCL10 / Fold change vs veh, BCL10 / RFU, UHRF1BP1L / Fold change vs veh, UHRF1BP1L / RFU, BET1 / Fold change vs veh, BET1 / RFU, CNOT2 / Fold change vs veh, CNOT2 / RFU, ZNF268 / Fold change vs veh, ZNF268 / Fold change vs veh, ZNF507 / RFU, DGCR2 / Fold change vs veh, DGCR2 / RFU, WDSUB1 / Fold change vs veh, WDSUB1 / Fold change vs veh, HSP90B1 /// MIR3652 / RFU, ADSS / Fold change vs veh, ADSS / RFU, GK / Fold change vs veh, GK / RFU, ZNF148 / Fold change vs veh, ZNF148 / RFU, TAF9 / Fold change vs veh, TAF9 / RFU, SLC1A5 / Fold change vs veh, SLC1A5 / RFU, SLMO2 / Fold change vs veh, SLMO2 / RFU, ABCC4 / Fold change vs veh, ABCC4 / RFU, LOC101060439 /// RAP1B / Fold change vs veh, LOC101060439 /// RAP1B / RFU, RFX7 / Fold change vs veh, RFX7 / RFU, GTPBP10 / Fold change vs veh, GTPBP10 / RFU, CNEP1R1 / Fold change vs veh, CNEP1R1 / RFU, BIVM-ERCC5 /// ERCC5 / Fold change vs veh, BIVM-ERCC5 /// ERCC5 / RFU, ILF3 / Fold change vs veh, ILF3 / RFU 11762660_at / Fold change /veh 11762660_at / RFU VCAN (11757783_s_at) / Fold change /veh VCAN (11757783_s_at) / RFU DDX43 (11728927_at) / Fold change /veh DDX43 (11728927_at) / RFU KRT8 (11758188_x_at) / Fold change /veh KRT8 (11758188_x_at) / RFU NKD1 (11759106_at) / Fold change /veh NKD1 (11759106_at) / RFU SRD5A1 (11742802_a_at) / Fold change /veh SRD5A1 (11742802_a_at) / RFU TPSAB1 /// TPSB2 (11721975_s_at) / Fold change /veh TPSAB1 /// TPSB2 (11721975_s_at) / RFU GSTM3 (11746129_a_at) / Fold change /veh GSTM3 (11746129_a_at) / RFU IL23R (11737362_x_at) / Fold change /veh IL23R (11737362_x_at) / RFU TMEM51 (11727254_a_at) / Fold change /veh TMEM51 (11727254_a_at) / RFU PIWIL2 (11732686_x_at) / Fold change /veh PIWIL2 (11732686_x_at) / RFU ORM1 (11744905_x_at) / Fold change /veh ORM1 (11744905_x_at) / RFU CCDC152 (11743942_at) / Fold change /veh CCDC152 (11743942_at) / RFU ECM1 (11717891_a_at) / Fold change /veh ECM1 (11717891_a_at) / RFU IL23R (11748794_a_at) / Fold change /veh IL23R (11748794_a_at) / RFU TNFAIP8L3 (11732012_x_at) / Fold change /veh TNFAIP8L3 (11732012_x_at) / RFU MBOAT4 (11741988_at) / Fold change /veh MBOAT4 (11741988_at) / RFU 11764193_at / Fold change /veh 11764193_at / RFU TMEM53 (11763286_at) / Fold change /veh TMEM53 (11763286_at) / RFU MAGEB2 (11727129_at) / Fold change /veh MAGEB2 (11727129_at) / RFU TMEM200A (11744735_a_at) / Fold change /veh TMEM200A (11744735_a_at) / RFU CCDC152 (11751479_a_at) / Fold change /veh CCDC152 (11751479_a_at) / RFU FAM211A (11726209_a_at) / Fold change /veh FAM211A (11726209_a_at) / RFU RGS16 (11746705_a_at) / Fold change /veh RGS16 (11746705_a_at) / RFU VCAN (11755009_s_at) / Fold change /veh VCAN (11755009_s_at) / RFU RHOB (11743442_s_at) / Fold change /veh RHOB (11743442_s_at) / RFU RGS16 (11720943_a_at) / Fold change /veh RGS16 (11720943_a_at) / RFU RGS16 (11720944_at) / Fold change /veh RGS16 (11720944_at) / RFU, VPS4B / Fold change vs veh, VPS4B / RFU, CREB1 / Fold change vs veh, CREB1 / RFU, DNAJC13 / Fold change vs veh, DNAJC13 / RFU, GNAQ / Fold change vs veh, GNAQ / RFU, CDK5R1 / Fold change vs veh, CDK5R1 / RFU, ZRANB3 / Fold change vs veh, ZRANB3 / RFU, CUL4A / Fold change vs veh, CUL4A / RFU, CCNY / Fold change vs veh, CCNY / RFU, UFL1 / Fold change vs veh, UFL1 / RFU, COG3 / Fold change vs veh, COG3 / RFU, DIAPH2 / Fold change vs veh, DIAPH2 / RFU, SKA2 / Fold change vs veh, SKA2 / RFU, AFF3 / Fold change vs veh, AFF3 / RFU, LMF1 / Fold change vs veh, LMF1 / RFU, IPO11 / Fold change vs veh, IPO11 / RFU, DFFB / Fold change vs veh, DFFB / RFU, FOXP1 / Fold change vs veh, FOXP1 / RFU, CARD8 / Fold change vs veh, CARD8 / RFU, STRN3 / Fold change vs veh, STRN3 / RFU, ADK / Fold change vs veh, ADK / RFU, RASSF2 / Fold change vs veh, RASSF2 / RFU, WIPF1 / Fold change vs veh, WIPF1 / RFU, LARP1B / Fold change vs veh, LARP1B / RFU, RASA1 / Fold change vs veh, RASA1 / RFU, RB1 / Fold change vs veh, RB1 / RFU, PPFIA1 / Fold change vs veh, PPFIA1 / RFU, MAT2A / Fold change vs veh, MAT2A / RFU, CCT5 / Fold change vs veh, CCT5 / RFU, WDR92 / Fold change vs veh, WDR92 / RFU, CUX1 / Fold change vs veh, CUX1 / RFU, TTC7A / Fold change vs veh, TTC7A / RFU, TMEM135 / Fold change vs veh, TMEM135 / RFU, DEPTOR / Fold change vs veh, DEPTOR / RFU, CPM / Fold change vs veh, CPM / RFU, DNAJB6 / Fold change vs veh, DNAJB6 / RFU, CACNA2D3 / Fold change vs veh, CACNA2D3 / RFU, DTX4 / Fold change vs veh, DTX4 / RFU, TFCP2 / Fold change vs veh, TFCP2 / RFU, GMCL1 /// GMCL1P1 / Fold change vs veh, GMCL1 /// GMCL1P1 / RFU, AEBP2 / Fold change vs veh, AEBP2 / RFU, SNHG1 /// SNORD22 /// SNORD25 /// SNORD26 /// SNORD27 /// SNORD28 /// SNORD29 /// SNORD31 / Fold change vs veh, SNHG1 /// SNORD22 /// SNORD25 /// SNORD26 /// SNORD27 /// SNORD28 /// SNORD29 /// SNORD31 / Fold change (Aza/veh), C12orf56 (ProbeSet 11735607_a_at) / Fold change (ACY-1035/veh), C12orf56 (ProbeSet 11735607_a_at) / Fold change (Aza/veh), FGFR1OP (ProbeSet 11751329_s_at) / Fold change (ACY-1035/veh), FGFR1OP (ProbeSet 11751329_s_at) / Fold change (Aza/veh), VPS36 (ProbeSet 11739960_a_at) / Fold change (ACY-1035/veh), VPS36 (ProbeSet 11739960_a_at) / RFU SYPL1 (11715823_x_at) / Fold change /veh SYPL1 (11715823_x_at) / RFU IGFBP7 (11715501_s_at) / Fold change /veh IGFBP7 (11715501_s_at) / RFU REEP3 (11722064_at) / Fold change /veh REEP3 (11722064_at) / RFU IGLL1 (11728026_x_at) / Fold change /veh IGLL1 (11728026_x_at): dose or concentration left out as unconfirmed
Settings: ProbeSet 11730501_a_at; LIST D

Compound: Nc1ncn([C@@H]2O[C@H](CO)[C@@H](O)[C@H]2O)c(=O)n1 [azacitidine]
- RFU, CACNA2D3: 122.12 RFU

From article PMC5218480 (PLoS ONE, 2017)
